Reference: PMC12564498, “Benzo[d]imidazole–Naphthalen-Arylmethanone Regioisomers as CB1 Ligands: Evaluation of Agonism via an Indirect Cytotoxicity-Based Approach” (International Journal of Molecular Sciences, 2025)
Values joined by “and” are separate entries in the source; they are usually repeats but may differ in a detail not shown here. Identical values can stand only once. Like-named read-outs stand apart in the source and are kept apart here.

Experiments:
[1] = target: T1, human cannabinoid CB1 receptor (Homo sapiens, UniProt P21554); assay: biochemical; assay type: binding; conditions: for Ki: Cheng–Prusoff from IC50, [3H]CP-55940 0.5 nM, read-out: CB1 Ki; for Ki / IC50: mean ± SEM n = 3; for IC50: [3H]CP-55940 0.5 nM, hCB1 HEK293-EBNA membranes, read-out: CB1 IC50; for inhibition at 10 µM: displacement of [3H]CP-55940 at 10 μM compound, read-out: CB1 Max Tested µM (% Displacement)
T1 construct: purchased Perkin Elmer Inc., Singapore Pte; Ltd. RBHCB1M400UA; host or cells: HEK293-EBNA cell membranes (overexpressing)
T1 sequence (P21554 whole entry): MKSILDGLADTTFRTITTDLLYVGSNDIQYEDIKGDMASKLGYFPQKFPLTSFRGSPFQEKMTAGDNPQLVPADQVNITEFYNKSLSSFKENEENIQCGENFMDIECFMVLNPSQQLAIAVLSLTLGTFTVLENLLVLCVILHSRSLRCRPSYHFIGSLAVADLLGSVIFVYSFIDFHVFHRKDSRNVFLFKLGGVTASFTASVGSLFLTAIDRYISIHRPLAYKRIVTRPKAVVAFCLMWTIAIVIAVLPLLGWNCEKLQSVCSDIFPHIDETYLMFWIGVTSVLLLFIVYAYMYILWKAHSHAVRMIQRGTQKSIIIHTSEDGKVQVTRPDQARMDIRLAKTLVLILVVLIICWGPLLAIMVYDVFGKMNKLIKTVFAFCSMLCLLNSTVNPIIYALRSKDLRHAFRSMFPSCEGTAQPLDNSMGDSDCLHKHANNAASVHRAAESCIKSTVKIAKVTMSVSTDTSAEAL

HEK293 cells = assay: cells; conditions: for cytotoxicity at 0.1 µM: read-out: % Toxicity HEK293T, 0.1 μM, 72 h, MTT, n = 3; for cytotoxicity in HEK293: Figure 4, MTT; for IC50: read-out: IC50 toxicity HEK293T
Description: (§1) HEK293, U87MG, and HL-60 cell lines were seeded in a flat-bottom 96-well plate at a density of 10,000 cells per well. […] All compounds were incubated at 0.1 μM in 200 μL of culture medium supplemented with 10% FBS, in a flat-bottom 96-well plate at a density of 10,000 cells per well, at 37 °C for 72 h. Next, 20 μL of a 5 mg/mL MTT solution was added, and the cells were incubated at 37 °C for 4 h. Then, they were solubilized with 10% sodium dodecyl sulfate (SDS) in 0.1 mM HCl and incubated overnight at 37 °C. Formazan absorbance of each well was measured using the EPOCH microplate reader (Biotek, Winooski, VT, USA) at a wavelength of 570 nm. […]
(§2) promyelocytic leukemia cells (HL-60) were maintained at 5% CO2 and 37 °C in DMEM, EMEM and RPMI medium, respectively containing 10% Fetal Bovine Serum and 100 U/mL penicillin and 100 […]
(§3) Cell viability: ([MTT - (3-(4,5-dimethylthiazol-2-yl)-2,5-diphenyltetrazolium bromide) - formazan] HEK293, U87MG, and HL-60 cells were first quantified to determine the exact number to be used in […]
(§4) with the Beer-Lambert(1).
(§5) HEK293, U87MG and HL-60 cell lines were seed in a flat-bottom 96-wells plate at a density of 10,000 […]
(§6) concentrations (0.001 μM to 10 μM) in 200 μL of respective culture medium supplemented with 10% fetal bovine serum (FBS), at 37 °C for 72 hours. Subsequently, 20 μL of 5 mg/mL MTT solution was added to each well, and cells were incubated at 37 °C for 4 h. The resulting formazan crystals were then solubilized with 10% sodium dodecyl sulfate (SDS) in 0.1 mM HCl, followed by overnight incubation at 37 °C. Untreated cells were used as the control, 0.1% of dimethyl sulfoxide (DMSO) as the vehicle control, and 0.2 % of Triton X-100 as a positive control for cell death. IC 50 toxicity values […]
(§7) same conditions described in the previous paragraph. […]
(§8) determined IC50. The stimulation with both CB ligands was performed simultaneously.
(§9) All compounds were incubated at 0.1 μM in 200 μL of culture medium supplemented with 10% FBS, in a flat-bottom 96-well plate at a density of 10,000 cells per well, at 37°C for 72 hours. Next, 20 μL of a 5 mg/mL MTT solution was added, and the cells were incubated at 37°C for 4 hours. Then, they were solubilized with 10% sodium dodecyl sulfate (SDS) in 0.1 mM HCl and incubated overnight at 37°C. Formazan absorbance of each well was measured using the EPOCH microplate reader (Biotek, USA) at a wavelength of 570 nm.
(§10) [1]Mosorov, V., The Lambert-Beer law in time domain form and its application.

HL-60 cells = assay: cells; conditions: for cytotoxicity at 0.1 µM: read-out: % Toxicity HL-60; for cytotoxicity in HL-60: Figure 4, MTT
Description: as §1, §2, §3, §4, §5, §6, §7, §8, §9, §10

U87MG cells = assay: cells; conditions: 72 h; for cytotoxicity at 0.1 µM: read-out: % Toxicity U87MG, 0.1 μM, 72 h, MTT, n = 3; for cytotoxicity in U87MG: Figure 4, MTT, 0.001 μM to 10 μM
Description: as §1, §2, §3, §4, §5, §6, §7, §8, §9, §10

[2] = target: T2, human recombinant cannabinoid CB2 receptor (Homo sapiens, UniProt P34972); assay: CB2 radioligand displacement binding assay ([3H]CP-55940); conditions: for Ki: Cheng–Prusoff from IC50, [3H]CP-55940 0.5 nM; for Ki / IC50: mean ± SEM n = 3; for IC50: [3H]CP-55940 0.5 nM, hCB2 HEK293-EBNA membranes; for inhibition at 10 µM: displacement of [3H]CP-55940 at 10 μM compound, read-out: CB2 Max Tested µM (% Displacement)
T2 construct: purchased Perkin Elmer Inc., Singapore Pte; Ltd. RBXCB2M400UA; host or cells: HEK293-EBNA cell membranes (overexpressing)
T2 sequence (P34972 whole entry): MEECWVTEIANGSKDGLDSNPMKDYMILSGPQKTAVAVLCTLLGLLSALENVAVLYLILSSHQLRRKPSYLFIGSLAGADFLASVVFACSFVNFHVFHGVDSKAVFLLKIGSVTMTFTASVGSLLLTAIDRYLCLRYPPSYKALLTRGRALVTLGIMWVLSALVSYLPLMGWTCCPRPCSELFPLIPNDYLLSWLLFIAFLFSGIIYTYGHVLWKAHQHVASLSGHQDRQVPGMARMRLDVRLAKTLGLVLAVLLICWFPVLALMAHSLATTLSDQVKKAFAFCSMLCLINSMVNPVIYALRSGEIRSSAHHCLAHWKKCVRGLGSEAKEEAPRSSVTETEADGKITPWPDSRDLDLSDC

[3] = read-out: IC50 toxicity U87MG, MTT

Which Ki [1] does the source give for COc1cccc(-c2nc3ccc(Cl)cc3n2C(=O)c2cccc3ccccc23)c1 [4b′] here?
Its Ki is over 10 µM.

What about the IC50 [1] of the same molecule?
Its IC50 is over 10 µM.

What about the inhibition at 10 µM [1] of the same molecule?
The inhibition at 10 µM was 43%.

And the cytotoxicity at 0.1 µM (HEK293 cells; Homo sapiens, HEK293, 72 h)?
The cytotoxicity at 0.1 µM was 50 ± 11%.

What about the “% Toxicity HL-60” value (HL-60 cells; 0.1 μM, 72 h, MTT, n = 3) of the same molecule?
The value was 52 ± 13%.

And the cytotoxicity at 0.1 µM (HL-60 cells; Homo sapiens, HL-60, 72 h)?
The cytotoxicity at 0.1 µM was 52%.

And the cytotoxicity at 0.1 µM (U87MG cells; Homo sapiens, U-87 MG)?
The cytotoxicity at 0.1 µM was 39 ± 20%.

What about the Ki [2] of the same molecule?
The Ki was ~4.46 µM and 4.46 µM.

And the IC50 [2]?
Its IC50 is 6.76 ± 3.09 µM.

What about the inhibition at 10 µM [2] of the same molecule?
The inhibition at 10 µM was 58%.

How did the “cytotoxicity in HEK293” value (HEK293 cells; 0.001 μM to 10 μM, 72 h) turn out when COc1ccc(C(=O)c2c(C)n(CCN3CCOCC3)c3cc(I)ccc23)cc1 [AM630, reference compound] was run?
The value was “non-toxic”.

What about the IC50 (HEK293 cells; MTT, 72 h, 0.001 μM to 10 μM) of the same molecule?
Its IC50 is over 10 µM.

And the “cytotoxicity in HL-60” value (HL-60 cells; 0.001 μM to 10 μM, 72 h)?
Its value is “non-toxic”.

And the IC50 (HL-60 cells; read-out: IC50 toxicity HL-60, MTT, 72 h, 0.001 μM to 10 μM)?
Its IC50 is over 10 µM.

And the “cytotoxicity in U87MG” value (U87MG cells)?
Its value is “non-toxic”.

What about the IC50 (U87MG cells; [3]) of the same molecule?
Its IC50 is over 10 µM.

With COc1cccc(-c2nc3cc(F)ccc3n2C(=O)c2cccc3ccccc23)c1 [Compound 5b, (5-fluoro-2-(3-methoxyphenyl)-1H-benzo[d]imidazol-1-yl)(naphthalen-1-yl)methanone] as the molecule, how does the Ki [1] read?
The Ki was ~1.53 µM and 1.53 µM.

And the IC50 [1]?
The IC50 was 6.23 ± 3.8 µM.

And the inhibition at 10 µM [1]?
The inhibition at 10 µM was over 55%.

And the cytotoxicity at 0.1 µM (HEK293 cells; Homo sapiens, HEK293, 72 h)?
The cytotoxicity at 0.1 µM was 75 ± 17%.

What about the cytotoxicity at 0.1 µM (HL-60 cells; Homo sapiens, HL-60, 72 h) of the same molecule?
Its cytotoxicity at 0.1 µM is 45 ± 17%.

And the cytotoxicity at 0.1 µM (U87MG cells; Homo sapiens, U-87 MG)?
Its cytotoxicity at 0.1 µM is 25 ± 14%.

And the Ki [2]?
The Ki was over 10 µM.

What about the IC50 [2] of the same molecule?
The IC50 was over 10 µM.

What about the inhibition at 10 µM [2] of the same molecule?
Its inhibition at 10 µM is 45%.

For Cc1ccc(-c2nc3cc(F)ccc3n2C(=O)c2cccc3ccccc23)o1 [Compound 5e, (5-fluoro-2-(5-methylfuran-2-yl)-1H-benzo[d]imidazol-1-yl)(naphthalen-1-yl)methanone], which Ki [1] is on record?
Its Ki is 1.82 ± 1.64 µM.

And the IC50 [1]?
The IC50 was 7.4 ± 3.28 µM.

What about the inhibition at 10 µM [1] of the same molecule?
Its inhibition at 10 µM is over 55%.

And the cytotoxicity at 0.1 µM (HEK293 cells; Homo sapiens, HEK293, 72 h)?
Its cytotoxicity at 0.1 µM is 55 ± 23%.

What about the cytotoxicity at 0.1 µM (HL-60 cells; Homo sapiens, HL-60, 72 h) of the same molecule?
Its cytotoxicity at 0.1 µM is 50 ± 19%.

What about the cytotoxicity at 0.1 µM (U87MG cells; Homo sapiens, U-87 MG) of the same molecule?
The cytotoxicity at 0.1 µM was 39 ± 18%.

And the Ki [2]?
The Ki was over 10 µM.

What about the IC50 [2] of the same molecule?
The IC50 was over 10 µM.

What about the inhibition at 10 µM [2] of the same molecule?
The inhibition at 10 µM was 38.5%.

For Cc1c(C(=O)c2cccc3ccccc23)c2cccc3c2n1C(CN1CCOCC1)CO3 (centres unmarked) [WIN-55212-2, reference compound], which “cytotoxicity in HEK293” value (HEK293 cells; 0.001 μM to 10 μM, 72 h) is on record?
The value was “harmlessness”.

And the IC50 (HEK293 cells; Homo sapiens, HEK293, 72 h)?
The IC50 was over 10 µM.

And the “cytotoxicity in HL-60” value (HL-60 cells; 0.001 μM to 10 μM, 72 h)?
The value was “exhibits cytotoxicity”.

And the IC50 (HL-60 cells; Homo sapiens, HL-60, 72 h, read-out: IC50 toxicity HL-60)?
Its IC50 is 1.39 µM.

And the IC50 (HL-60 cells; Homo sapiens, HL-60, read-out: IC50 HL-60 cells as printed in the figure picture)?
The IC50 was 1.38 µM.

What about the “cytotoxicity in U87MG” value (U87MG cells) of the same molecule?
The value was “exhibits cytotoxicity”.

And the cytotoxicity at 0.1 µM (U87MG cells; Homo sapiens, U-87 MG)?
The cytotoxicity at 0.1 µM was about 30%.

And the IC50 (U87MG cells; Homo sapiens, U-87 MG, read-out: IC50 toxicity U87MG, MTT, 72 h)?
Its IC50 is 0.2 µM.

And the IC50 (U87MG cells; [3])?
The IC50 was 0.25 µM.

What about the “displacement of specific radioligand binding (nonspecific binding definition), CB2” value ([2]; 10 μM unlabeled WIN-55212-2, cannabinoid receptors) of the same molecule?
Its value is “at least 84%”.
